Source: patent US20240360146A1, “BRUTON'S TYROSINE KINASE AND MUTANT DEGRADER, COMPOSITION AND APPLICATION THEREOF” (HANGZHOU HEALZEN THERAPEUTICS CO., LTD., priority 2021, published 2024)

Legend:
[1] = target: T1, BTK (Homo sapiens, UniProt Q06187); experiment: BTK degradation activity test in Mino cells; type: cell-based; conditions: 16 h incubation, Western blot or Elisa
T1 construct: endogenous in cells; host or cells: Mino cells
Summary of the method: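 DC50 derived by curve fitting of BTK degradation rates versus untreated control across compound concentrations. Mino cells were exposed for 16 h; BTK levels in lysates, normalised via BCA protein, measured by Western blot or ELISA.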

[2] = target: T2, BTK-C481S (Homo sapiens, UniProt Q06187, C481S); experiment: BTK-C481S degradation activity test in HEK293 OE BTK-C481S cells; type: cell-based; conditions: 24 h incubation, Western blot or Elisa
T2 construct: expressed in transfected cells; host or cells: HEK293 OE BTK-C481S (overexpressing) cell line
Procedure: HEK293 OE BTK-C481S cell line cells were seeded at 500,000 to 1,000,000 cells/well in a 6-well plate. The compounds were diluted to different concentrations and added to the plate, and after 24 h of incubation, the cells were harvested. After lysing the cells, the total protein concentration in each well was determined using the BCA method. The amount of BTK-C481S was determined using Western blot or Elisa method. The amount of undegraded BTKC481S protein at each drug concentration was compared with the amount of BTKC481S protein in the blank control group to calculate the degradation rate. The degradation curve was drawn based on the degradation rate at each concentration, and the half degradation concentration (DC50) was calculated by fitting.

[3] = system: OCI-LY10 cells; experiment: Inhibitory activity on OCI-LY10 cell proliferation (MTS); type: cell-based; conditions: Homo sapiens, 72 h
Summary of the method: (§1)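 Cells seeded at 10000/well, treated with compounds from 1000 nM (4-fold, 8 points) for 72 h (OCI-LY10) or 168 h (Mino) at 37° C. MTS added for 2 h, stopped with SDS, absorbance read at 490 and 650 nm; IC50 from dose-response fit.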

[4] = system: Mino cells; experiment: Inhibitory activity on Mino cell proliferation (MTS); type: cell-based; conditions: Homo sapiens, 168 h incubation
Summary of the method: as §1

[5] = Stability of compounds in human liver microsome; type: in vitro ADME; conditions: human liver microsomes, NADPH, 37° C., sampling 0-120 min; read-out: Human liver microsome T1/2
Summary of the method: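 Compound incubated at 37° C with human liver microsomes (1 mg in 1 mL PBS) plus NADPH. Samples taken at 0, 15, 30, 60 and 120 min, quenched into internal standard solution and analysed by LC/MS; metabolism calculated from peak area.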

[6] = Mouse absorption test (pharmacokinetic properties in mice); type: in vivo; conditions: intragastric; for DNAUC: DNAUC = AUC/Dose; for Cmax: mouse, plasma, po
Procedure: […] The blood collection time points for intragastric administration were 0.25, 0.5, 1, 2, 4, 6, 8, and 24 h. 0.5 mL of blood was taken with a capillary tube from the orbit, and placed in an EP tube containing EDTA anticoagulant. The EP tube was shaken gently for mixing uniformly, and centrifuged at 3500 rpm and 4° C. for 10 min. The supernatant, i.e., plasma, was taken. Analysis was performed using LC-MS/MS.

[7] = system: OCL-LY10 transplanted tumors; experiment: Chronic efficacy test, OCL-LY10 subcutaneous transplanted tumor model; type: in vivo; conditions: NOD/SCID mice, intragastric 10 mg/kg, 3 weeks
Procedure: NOD/SCID mice were subcutaneously inoculated with OCL-LY10 cells to establish a tumor model. When the tumors grew to about 100 mm^3, the mice were administered with drugs in groups. The mode of administration was as follows: the test compound was administered intragastrically at 10 mg/kg; The changes in body weight and tumor size of the mice were measured twice per week. After 3 weeks, the mice were sacrificed by cervical dislocation, and the efficacy of the compounds on transplanted tumors in OCL-LY10 mice was examined.

T2 sequence (Q06187 whole entry C481S): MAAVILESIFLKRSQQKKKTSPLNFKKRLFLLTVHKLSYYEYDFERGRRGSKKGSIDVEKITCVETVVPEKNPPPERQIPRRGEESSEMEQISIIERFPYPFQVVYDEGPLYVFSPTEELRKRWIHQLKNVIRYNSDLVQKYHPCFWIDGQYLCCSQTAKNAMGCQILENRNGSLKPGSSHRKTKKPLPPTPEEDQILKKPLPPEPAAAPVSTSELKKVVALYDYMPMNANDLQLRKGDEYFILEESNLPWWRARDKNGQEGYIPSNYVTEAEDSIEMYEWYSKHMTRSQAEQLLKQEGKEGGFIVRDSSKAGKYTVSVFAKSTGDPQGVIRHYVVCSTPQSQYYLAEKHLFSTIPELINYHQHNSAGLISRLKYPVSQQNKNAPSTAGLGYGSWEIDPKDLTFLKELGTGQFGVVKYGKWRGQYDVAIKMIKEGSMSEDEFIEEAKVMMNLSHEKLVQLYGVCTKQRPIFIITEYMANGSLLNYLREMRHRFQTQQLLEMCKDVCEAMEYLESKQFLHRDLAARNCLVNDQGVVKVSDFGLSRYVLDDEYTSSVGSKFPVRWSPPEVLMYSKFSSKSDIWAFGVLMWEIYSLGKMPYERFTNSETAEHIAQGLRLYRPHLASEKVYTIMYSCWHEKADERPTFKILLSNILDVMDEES
T1 sequence (Q06187 whole entry): as the sequence (Q06187 whole entry C481S) above, with S481C counted along it

Structure (SMILES) | DC50 [1] | DC50 [2] | IC50 [3] | half-life at 0.97 µg/mL [5] | DNAUC ([6]; 30 mg/kg) | Cmax ([6]; 30 mg/kg, class symbols) | Cmax ([6]; 30 mg/kg) | DNAUC ([6]; 100 mg/kg) | Cmax ([6]; 100 mg/kg) | IC50 [4] | TGI (%) [7]
CN1CCN([C@@H]2CCCN(c3nnc(C(N)=O)c(Nc4ccc(N5CCN(CC6CCN(c7ccc(N8CCC(=O)NC8=O)cc7)CC6)CC5)c(F)c4)n3)C2)C1=O [Compound 255, (R)-5-((4-(4-((1-(4-(2,4-dioxotetrahydropyrimidin-1(2H)-yl)phenyl)piperidin-4-yl)methyl)piperazin-1-yl)-3-fluorophenyl)amino)-3-(3-(3-methyl-2-oxoimidazolidin-1-yl)piperidin-1-yl)-1,2,4-triazin-6-carboxamide] | < 1 nM | < 10 nM | 1.5 nM | > 30 min | 1955 ng/ml*h/mpk | > 6000 ng/mL |  |  |  | < 0.26 nM | 
CN1CCN([C@@H]2CCCN(c3nnc(C(N)=O)c(Nc4ccc(N5CCN(CC6CCN(c7ccc(F)c(N8CCC(=O)NC8=O)c7)C6)CC5)c(F)c4)n3)C2)C1=O (stereo partly drawn) [Compound 256, 5-((4-(4-((1-(3-(2,4-dioxotetrahydropyrimidin-1(2H)-yl)-4-fluorophenyl)pyrrolidin-3-yl)methyl)piperazin-1-yl)-3-fluorophenyl)amino)-3-((R)-3-(3-methyl-2-oxoimidazolidin-1-yl)piperidin-1-yl)-1,2,4-triazin-6-carboxamide] | < 1 nM |  | 1.6 nM | > 30 min |  |  |  |  |  | 1.87 nM | 
COc1ccc(N2CCC(CN3CCN(c4ccc(Nc5nc(N6CCC[C@@H](N7CCN(C)C7=O)C6)nnc5C(N)=O)cc4F)CC3)C2)cc1N1CCC(=O)NC1=O (stereo partly drawn) [Compound 258, 5-((4-(4-((1-(3-(2,4-dioxotetrahydropyrimidin-1(2H)-yl)-4-methoxyphenyl)pyrrolidin-3-yl)methyl)piperazin-1-yl)-3-fluorophenyl)amino)-3-((R)-3-(3-methyl-2-oxoimidazolidin-1-yl)piperidin-1-yl)-1,2,4-triazin-6-carboxamide] | < 1 nM |  | 0.96 nM | > 30 min |  |  |  |  |  | 5.31 nM | 
COc1cc(N2CCC(CN3CCN(c4ccc(Nc5nc(N6CCC[C@@H](N7CCN(C)C7=O)C6)nnc5C(N)=O)cc4F)CC3)CC2)ccc1N1CCC(=O)NC1=O [Compound 259, (R)-5-((4-(4-((1-(4-(2,4-dioxotetrahydropyrimidin-1(2H)-yl)-3-methoxyphenyl)piperidin-4-yl)methyl)piperazin-1-yl)-3-fluorophenyl)amino)-3-(3-(3-methy 1-2-oxoimidazolidin-1-yl)piperidin-1-yl)-1,2,4-triazin-6-carboxamide] | < 1 nM | < 10 nM | 0.61 nM | > 30 min | 2223 ng/ml*h/mpk | > 6000 ng/mL |  |  |  | 5.58 nM | 
CN1CCN([C@@H]2CCCN(c3cnc(C(N)=O)c(Nc4ccc(C5CCN(CC6CCN(c7ccc8c(c7)C(=O)N(C7CCC(=O)NC7=O)C8=O)CC6)CC5)cc4)n3)C2)C1=O (stereo partly shown) [Compound b] |  |  |  | 5.18 min |  |  |  | 631 ng/ml*h/mpk | 4030 ng/mL |  | 
C=CC(=O)N1CCC[C@@H](n2nc(-c3ccc(Oc4ccccc4)cc3)c3c(N)ncnc32)C1 [Ibrutinib] |  |  |  |  |  |  |  |  |  |  | 50.72%

The next lines start with results.

DC50 [1] | DC50 [2] | IC50 [3] | half-life at 0.97 µg/mL [5] | DNAUC ([6]; 30 mg/kg) | Cmax ([6]; 30 mg/kg, class symbols) | Cmax ([6]; 30 mg/kg) | DNAUC ([6]; 100 mg/kg) | Cmax ([6]; 100 mg/kg) | Structure (SMILES) | IC50 [4] | TGI (%) [7]
< 1 nM | < 10 nM | 0.28 nM | 32.6 min | 3809 ng/ml*h/mpk | > 6000 ng/mL |  |  |  | CN1CCN([C@@H]2CCCN(c3nnc(C(N)=O)c(Nc4ccc(N5CCN(CC6CCN(c7ccc8c(c7)C(=O)N(C7CCC(=O)NC7=O)C8=O)C6)CC5)c(F)c4)n3)C2)C1=O (stereo partly drawn) [Compound 130, 5-((4-(4-((1-(2-(2,6-dioxopiperidin-3-yl)-1,3-dioxoisoindolin-5-yl)pyrrolidin-3-yl)methyl)piperazin-1-yl)-3-fluorophenyl)amino)-3-((R)-3-(3-methyl-2-oxoimidazolin-1-yl)piperidin-1-yl)-1,2,4-triazin-6-carboxamide] | 2.41 nM | 
< 1 nM |  | 0.56 nM | > 30 min | 2704 ng/ml*h/mpk |  | 13800 ng/mL |  |  | CN1CCN([C@@H]2CCCN(c3nnc(C(N)=O)c(Nc4ccc(N5CCN(CC6CCN(c7ccc(C(=O)N[C@H]8CCC(=O)NC8=O)nc7)C6)CC5)c(F)c4)n3)C2)C1=O (stereo partly drawn) [Compound 145, 5-((4-(4-((1-(6-(((S)-2,6-dioxopiperidin-3-yl)carbamoyl)pyridin-3-yl)pyrrolidin-3-yl)methyl)piperazin-1-yl)-3-fluorophenyl)amino)-3-((R)-3-(3-methyl-2-oxoimidazolin-1-yl)piperidin-1-yl)-1,2,4-triazin-6-carboxamide] | 4.15 nM | 
< 1 nM | < 10 nM | 1.39 nM | > 30 min |  |  |  |  |  | CN1CCN([C@@H]2CCCN(c3nnc(C(N)=O)c(Nc4ccc(N5CCN(CC6CCN(c7ccc(C(=O)NC8CCC(=O)NC8=O)nc7)CC6)CC5)c(F)c4)n3)C2)C1=O (stereo partly drawn) [Compound 146, 5-((4-(4-((1-(6-((2,6-dioxopiperidin-3-yl)carbamoyl)pyridin-3-yl)piperidin-4-yl)methyl)piperazin-1-yl)-3-fluorophenyl)amino)-3-((R)-3-(3-methyl-2-oxoimidazolin-1-yl)piperidin-1-yl)-1,2,4-triazin-6-carboxamide] | 1.73 nM | 
< 1 nM |  | 2.65 nM | > 30 min |  |  |  |  |  | CN1CCN([C@@H]2CCCN(c3nnc(C(N)=O)c(Nc4ccc(N5CCN(CC6CCN(c7ccc(C(=O)N[C@H]8CCC(=O)NC8=O)nc7)CC6)CC5)c(F)c4)n3)C2)C1=O [Compound 171, 5-((4-(4-((1-(6-(((S)-2,6-dioxopiperidin-3-yl)carbamoyl)pyridin-3-yl)piperidin-4-yl)methyl)piperazin-1-yl)-3-fluorophenyl)amino)-3-((R)-3-(3-methyl-2-oxoimidazolidin-1-yl)piperidin-1-yl)-1,2,4-triazin-6-carboxamide] | 3.43 nM | 
< 1 nM |  | 2.39 nM | > 30 min |  |  |  |  |  | CN1CCN([C@@H]2CCCN(c3nnc(C(N)=O)c(Nc4ccc(N5CCN(CC6CCN(c7ccc(C(=O)N[C@H]8CCC(=O)NC8=O)c(F)c7)CC6)CC5)c(F)c4)n3)C2)C1=O [Compound 172, 5-((4-(4-((1-(4-(((S)-2,6-dioxopiperidin-3-yl)carbamoyl)-3-fluorophenyl)piperidin-4-yl)methyl)piperazin-1-yl)-3-fluorophenyl)amino)-3-((R)-3-(3-methyl-2-oxoimidazolidin-1-yl)piperidin-1-yl)-1,2,4-triazin-6-carboxamide] | 6.2 nM | 
< 1 nM |  | 1.79 nM | > 30 min |  |  |  |  |  | CN1CCN([C@@H]2CCCN(c3nnc(C(N)=O)c(Nc4ccc(N5CCN(CC6CCN(c7ccc(N8CCC(=O)NC8=O)nc7)CC6)CC5)c(F)c4)n3)C2)C1=O [Compound 195, (R)-5-((4-(4-((1-(6-(2,4-dioxotetrahydropyrimidin-1(2H)-yl)pyridin-3-yl)piperidin-4-yl)methyl)piperazin-1-yl)-3-fluorophenyl)amino)-3-(3-(3-methyl-2-oxoimidazolidin-1-yl)piperidin-1-yl)-1,2,4-triazin-6-carboxamide] | 8.53 nM | 
< 1 nM |  | 0.89 nM | > 30 min | 2536 ng/ml*h/mpk | > 6000 ng/mL |  |  |  | CN1CCN([C@@H]2CCCN(c3nnc(C(N)=O)c(Nc4ccc(N5CCN(CC6CCN(c7ccc(C(=O)NC8CCC(=O)NC8=O)c(F)c7)CC6)CC5)c(F)c4)n3)C2)C1=O (stereo partly drawn) [Compound 254, 5-((4-(4-((1-(4-((2,6-dioxopiperidin-3-yl)carbamoyl)-3-fluorophenyl)piperidin-4-yl)methyl)piperazin-1-yl)-3-fluorophenyl)amino)-3-((R)-3-(3-methyl-2-oxoimidazolidin-1-yl)piperidin-1-yl)-1,2,4-triazin-6-carboxamide] |  | 
